Reference: PubChem BioAssay (NCI)
Several values for one entry are separate records, joined by “and”; a condition that tells them apart may be missing. Equal values may be shown once.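 Briefly, cells in 96-well plates were exposed to five compound concentrations for 48 h, and endpoints were estimated by linear interpolation. GI50 = concentration required for 50% inhibition of growth. TGI: concentration producing complete growth inhibition.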

Tests used:
Assay in all cases: NCI tumour cell line growth inhibition, 48 h
[1] = system: SR leukemia
[2] = system: HOP-62 NSCLC
[3] = system: RPMI-8226 leukemia
[4] = system: OVCAR-3 ovarian
[5] = system: UO-31 renal
[6] = system: SF-268 CNS
[7] = system: SK-MEL-28 melanoma
[8] = system: NCI-H226 lung
[9] = system: HL-60(TB) leukemia
[10] = system: DMS 273 small cell lung
[11] = system: SK-OV-3 ovarian
[12] = system: SF-295 CNS
[13] = system: UACC-62 melanoma
[14] = system: MDA-N
[15] = system: XF 498 CNS
[16] = system: HT29 colon
[17] = system: T-47D breast
[18] = system: DU-145 prostate
[19] = system: HS 578T breast
[20] = system: COLO 205 colon
[21] = system: MDA-MB-231 breast
[22] = system: MCF7 breast
[23] = system: HOP-18 NSCLC
[24] = system: ACHN renal
[25] = system: NCI-H460 lung
[26] = system: EKVX NSCLC
[27] = system: IGROV1 ovarian
[28] = system: KM12 colon
[29] = system: CCRF-CEM leukemia
[30] = system: SNB-75 CNS
[31] = system: UACC-257 melanoma

For `CC1(C)CC[C@H](C2=CC(=O)c3c(O)ccc(O)c3C2=O)O1`, the GI50 [1] was 76.4 nM, the TGI [1] was 1460 nM and the TGI [2] was 9.96 µM and 6.57 µM. The GI50 [3] was 1420 nM and 278 nM and 398 nM, the TGI [3] was 5130 nM and 992 nM and 2200 nM and the GI50 [4] was 2230 nM and 1640 nM and 669 nM. The TGI [4] was 4.87 µM and 3.02 µM and 1.61 µM, the GI50 [5] was 1390 nM and 1690 nM and 391 nM and the TGI [5] was 4 µM and 3.06 µM and 0.838 µM. For the same compound, the GI50 [6] was 3540 nM and 2190 nM and 1010 nM, the TGI [6] was 10.3 µM and 6.27 µM and 6.67 µM and the GI50 [7] was 2170 nM and 979 nM and 571 nM. For the same compound, the TGI [7] was 5430 nM and 2150 nM and 1160 nM, the GI50 [8] was 5010 nM and 1790 nM and 611 nM and the GI50 [9] was 505 nM and 131 nM. The TGI [9] was 1360 nM and 442 nM, the GI50 [10] was 7310 nM and 1320 nM and 752 nM and the GI50 [11] was 4.81 µM. For the same compound, the TGI [11] was 18.8 µM and 13.7 µM, the GI50 [12] was 8.48 µM and 2.4 µM and 3.24 µM and the TGI [12] was 22.1 µM and 6.73 µM and 8.11 µM. For the same compound, the GI50 [13] was 2360 nM and 1300 nM and 540 nM, the TGI [13] was 5280 nM and 2660 nM and 1530 nM and the TGI [14] was 1600 nM and 3780 nM. For the same compound, the GI50 [15] was 2300 nM and 2360 nM and 563 nM, the TGI [15] was 4.6 µM and 3.89 µM and 1.34 µM and the GI50 [16] was 3170 nM and 1720 nM and 773 nM. For the same compound, the TGI [16] was 7.29 µM and 3.63 µM and 1.83 µM, the TGI [17] was 1350 nM and 2630 nM and the TGI [18] was 6.28 µM and 4.38 µM. For the same compound, the TGI [19] was 6.78 µM and 7.42 µM, the GI50 [20] was 632 nM and 144 nM and 139 nM and the TGI [20] was 1660 nM and 388 nM and 227 nM. The TGI [21] was 2.79 µM and 8.31 µM, the TGI [22] was 739 nM and 337 nM and the GI50 [23] was 1830 nM and 1720 nM and 265 nM. For the same compound, the TGI [23] was 3.39 µM and 3.15 µM and 0.703 µM, the GI50 [24] was 1640 nM and 1270 nM and 252 nM and the TGI [24] was 3450 nM and 2550 nM and 690 nM. For the same compound, the GI50 [25] was 5140 nM and 1610 nM and 1450 nM, the TGI [25] was 19.5 µM and 3.36 µM and 3.86 µM and the GI50 [26] was 4700 nM and 1480 nM and 1350 nM. The TGI [26] was 11.8 µM and 3.03 µM and 3.95 µM, the GI50 [27] was 4930 nM and 2480 nM and 1610 nM and the TGI [27] was 9.58 µM and 5.31 µM and 3.21 µM. The GI50 [28] was 6250 nM and 1690 nM and 1830 nM, the TGI [28] was 14.2 µM and 3.2 µM and 3.45 µM and the GI50 [29] was 666 nM and 114 nM. For the same compound, the GI50 [30] was 8530 nM and 2870 nM and 950 nM, the TGI [30] was 27.7 µM and 4.02 µM and the GI50 [31] was 1990 nM and 1380 nM and 391 nM. For the same compound, the TGI [31] was 4770 nM and 2670 nM and 1080 nM.
